Assay results taken from patent US20250276063A1, “PLACENTA-DERVIED NK CELLS AS A SENOL YTIC FOR THERAPEUTIC AND OTHER USES” (Celularity Inc., priority 2021, published 2025).

What was measured:
[1] = system: CD34+ cells; assay: NK cell expansion from CD34+ cells cultured with compound, Day 35; type: cell-based, human; details: for expansion compared to SR1 at Day 35: compound 10 μM, SR1 10 μM positive control; for supported NK expansion: compound 10 μM during the first 14 days of the culture
Description: UCB CD34+ cells were cultivated in presence of cytokines including thrombopoietin, SCF, Flt3 ligand, IL-7, IL-15 and IL-2 for 35 days to produce three-stage NK cells, as described in Example 1. Multi-color flow cytometry was used to determine the phenotypic characteristics of three-stage NK cells.
(§1) For biological testing, the compounds were provided to culture to evaluate their effects on NK cell expansion and differentiation. Specifically, donors of CD34+ cells (StemCell Technology) were thawed and expanded in vitro following NK culture protocol. During the first 14 days of the culture, each CRL compounds was dissolved in DMSO and added to the culture at 10 μM concentration. SR1 (at 10 μM) served as a positive control compound, while DMSO alone without any compound served as a negative control. At the end of the culture on Day 35, cell expansion, natural killer (NK) cell differentiation and cytotoxicity of the cells against K562 tumor cell line were characterized. Due to the large number of the compounds, the testing was performed in two experiments, CRL1-11 and CRL 12-22. The same donors were used for each experiment. Positive and negative controls were also included in both experiments.

[2] = system: K562 tumor cells; assay: Cytotoxicity assay of compound cultured cells against K562 tumor cells; type: cell-based; details: 10:1 effector to target ratio; both donors
Description: as §1
Cytotoxicity assay was run using compound cultured cells against K562 tumor cells at 10:1 effector to target ratio (FIG. 5) to evaluate cell functions.

| SMILES | expansion compared to SR1 at Day 35 [1] | killing activities compared to cells cultured with SR1 [2] | supported NK expansion [1] |
| --- | --- | --- | --- |
| Cc1cncc(-c2nc(NCCc3c[nH]c4ccccc34)c3scc(C(C)C)c3n2)c1 [CRL21, N-(2-(1H-indol-3-yl)ethyl)-7-isopropyl-2-(5-methylpyridin-3-yl)thieno[3,2-d]pyrimidin-4-amine] | slightly less expansion compared to SR1 | increased killing activities of the cells | – |
| CC(C)c1csc2c(NCCc3c[nH]c4ccccc34)nc(-c3cncc(F)c3)nc12 [CRL18, N-(2-(1H-indol-3-yl)ethyl)-2-(5-fluoropyridin-3-yl)-7-isopropylthieno[3,2-d]pyrimidin-4-amine] | slightly less expansion compared to SR1 | increased killing activities of the cells | – |
| CCC(C)Nc1cc(-c2cncc(C#N)c2)nc(NCCc2c[nH]c3ccccc23)n1 (centres unmarked) [CRL7, 5-(2-((2-(1H-indol-3-yl)ethyl)amino)-6-(sec-butylamino)pyrimidin-4-yl)nicotinonitrile] | – | – | all the compounds except CRL7 and CRL13 supported PNK-007 expansion and differentiation |
| CCC(C)Nc1nc(NCCc2c[nH]c3ccccc23)c2ccccc2n1 (centres unmarked) [CRL13, N^4-(2-(H-indol-3-yl)ethyl)-N^2-(sec-butyl)quinazoline-2,4-diamine] | – | – | all the compounds except CRL7 and CRL13 supported PNK-007 expansion and differentiation |
| Cc1cncc(-c2nc(NCCc3c[nH]c4ccccc34)c3occc3n2)c1 [CRL20, N-(2-(1H-indol-3-yl)ethyl)-2-(5-methylpyridin-3-yl)furo[3,2-d]pyrimidin-4-amine] | – | – | supported cell expansion the best |
| CC(C)c1csc2c(NCCc3c[nH]c4ccccc34)nc(-c3cncc(C#N)c3)nc12 [CRL17, 5-(4-((2-(1H-indol-3-yl)ethyl)amino)-7-isopropylthieno[3,2-d]pyrimidin-2-yl)nicotinonitrile] | slightly less expansion compared to SR1 | increased killing activities of the cells | – |
| N#Cc1cncc(-c2nc(NCCc3c[nH]c4ccccc34)c3occc3n2)c1 [CRL22, 5-(4-((2-(1H-indol-3-yl)ethyl)amino)furo[3,2-d]pyrimidin-2-yl)nicotinonitrile] | – | – | supported cell expansion the best |
| Fc1cncc(-c2nc(NCCc3c[nH]c4ccccc34)c3occc3n2)c1 [CRL19, N-(2-(1H-indol-3-yl)ethyl)-2-(5-fluoropyridin-3-yl)furo[3,2-d]pyrimidin-4-amine] | – | – | supported cell expansion the best |
